{
  "source": "patent US8748408B2",
  "about": "“Methods of treatment of mitochondrial disorders” (The Regents of the University of California, priority 1999, dated 2014)",
  "type_in_all_cases": "in vivo, human",
  "key": {"[1]": {"system": "child with MARIAHS syndrome", "source_text": "CMZ is a child with mitochondrial ataxia, recurrent infections, aphasia, hypouricemia/hypomyelination, and seizures ([…] syndrome), cared for […]. Symptoms indicate a primary deficiency in the enzyme dihydroorotate dehydrogenase, the rate-limiting step in de novo pyrimidine synthesis, which could lead to a functional dependence on exogenous uridine. […] treatment began with uridine. […] the treating agent was switched to triacetyluridine because it is a more easily absorbed form of uridine."}, "[2]": {"assay": "Tegretol level in patient (Example 4)", "conditions": "both before and after starting triacetyluridine, found subtherapeutic"}, "[3]": {"system": "adult with familial history of mitochondrial disease", "source_text": "KL is an adult who first came to the investigator's attention after the diagnosis of their son with mitochondrial disease leading to stroke-like episodes, ataxia, and encephalopathy. Before administration of triacetyluridine, KL suffered with recurrent pyelonephritis, infection-association neutropenia, […] migraines, grand-mal seizures, neurogenic bowel and bladder requiring QID catheterization, biliary […], dysphagia and pc cough, peripheral and autonomic polyneuropathy, painful paresthesias, cardiac conduction disturbances with SVT and tachy-brady syndrome, severe orthostatic hypotension, orthopnea, and poor functional capacity with inability to climb a flight of stairs without stopping to rest, and declining cognitive performance with episodes of clouded sensorium and poor memory that would last hours to days. KL started triacetyluridine at a dose of 0.05 g/kg/d."}, "[4]": {"system": "child with refractory epilepsy and multiple mitochondrial DNA deletion syndrome", "assay": "Administration of triacetyluridine to a subject having multiple mitochondrial DNA deletion syndrome (Example 4)", "conditions": "patient", "source_text": "patient one is a child with refractory epilepsy. As a 5th grader they were able to play little league baseball. […] This disorder produces multiple deleted copies of mitochondrial DNA and can lead to a number of symptoms. SK began deteriorating. They had 2 ICU admissions for crescendo epilepsy, and had 7 changes in their anticonvulsant regimen in the succeeding 4 months. They were having 8-10 grand-mal seizures every night, leaving them postictal for much of the morning. They also developed upper lip automaticity. The patient was initially administered 0.05 g/kg/day of triacetyluridine for one week, followed by 0.16 g/kg/day for 1 week, and then 0.24 g/kg/day."}, "[5]": {"system": "child with Leigh syndrome, lactic acidemia, and renal tubular acidosis", "assay": "Administration of triacetyluridine to a subject having Leigh syndrome (Example 5)", "source_text": "patient two was a child with Leigh syndrome, lactic acidemia, and renal tubular acidosis who suffered a hypertensive crisis and acute edema as they came out of general anesthesia for replacement of an elective percutaneous gastrostomy tube (PEG). […] They developed pneumonia as a complication of PEG and developed new Leigh syndrome lesions in the spinal cord, midbrain, and thalamus. They drifted into a coma 3 days after PEG placement. The person received emergency treatment with triacetyluridine."}, "[6]": {"system": "patients with mitochondrial renal tubular acidosis (RTA)", "assay": "Treatment of patients with mitochondrial renal tubular acidosis with triacetyluridine (Example 1)", "source_text": "Four patients with mitochondrial renal tubular acidosis (RTA) were studied. Mitochondrial RTAs often defy simple classification as proximal (type II) or distal (type I) tubulopathies, as these patients are often mosaics and express features of both phenotypes leading to hyperchloremic (non-anion gap) metabolic acidosis.\nPatient #1 was a person with Leigh syndrome, lactic acidemia, and complex I deficiency who required 200 mEq/day of NaHCO3 to compensate for renal losses of alkali, and maintain serum bicarbonate levels above 20 mEq/l, 1+ proteinuria, and significant aminoaciduria with hydroxyprolinuria.\nPatient #2 was a person with Leigh syndrome, and complex IV (COX) deficiency, who also required 200 mEq/day of NaHCO3.\nPatient #3 was a person with Leigh syndrome, lactic acidemia, 1+ proteinuria, and pyruvate dehydrogenase (PDH) deficiency, who required up to 210 mEq/day of NaHCO3.\nPatient #4 was a person with 3-hydroxyisobutyric aciduria, lactic acidemia, and encephalomyopathy, who required 468 mEq/day of NaHCO3.\nBlood and urine electrolytes, creatinine, pH, urinalysis, and venous blood gases were studied before and after treatment. Quantitative urine amino acids and organic acids were also obtained. Pre-enrollment doses of oral sodium bicarbonate were continued for the first 3 days of triacetyluridine treatment, then reduced weekly as tolerated to maintain serum bicarbonate above 20 mEq/1.\nPatients received triacetyluridine 2 g/m^2 PO TID."}, "[7]": {"conditions": "patient three, started at 0.05 g/kg/d"}, "[8]": {"conditions": "Patient #1, triacetyluridine 2 g/m^2 PO TID"}},
  "data": [
    {"smiles": "O=c1ccn([C@@H]2O[C@H](CO)[C@@H](O)[C@H]2O)c(=O)[nH]1", "note": "[uridine, reference compound]", "values": [
      {"measurement": "follow-up brain MRI, white matter disease", "setting": "[1]; patient four, after 20 months on uridine", "value": "no progression in their white matter disease"}
    ]},
    {"smiles": "NC(=O)N1c2ccccc2C=Cc2ccccc21", "note": "[tegretol]", "values": [
      {"measurement": "tegretol level", "setting": "[2]", "value": 4, "unit": "µg/mL"}
    ]},
    {"smiles": "CC(=O)OC[C@H]1O[C@@H](n2ccc(=O)[nH]c2=O)[C@H](OC(C)=O)[C@@H]1OC(C)=O", "note": "[triacetyluridine, 2′, 3′, 5′-tri-O-acetyl-1-β-D-uridine]", "values": [
      {"measurement": "overall condition and symptomotology (conclusion)", "setting": "[1]; MARIAHS syndrome patient", "value": "dramatic improvement in the patient's condition, and a marked reduction in symptomotology"},
      {"measurement": "toxicity", "setting": "[1]; human, in vivo", "value": "no biochemical, hematologic, or clinical toxicity"},
      {"measurement": "truncal ataxia", "setting": "[1]; patient four, uridine, then triacetyluridine", "value": "Mild truncal ataxia persists"},
      {"measurement": "language and gait", "setting": "[1]; patient four, within 2 months of a dose increase to 0.2 g/kg/day", "value": "rapid increase in expressive language acquisition and a narrowing of their previous broad-based, ataxic gait"},
      {"measurement": "cystic breast disease", "setting": "[3]; human, in vivo", "value": "flared slightly"},
      {"measurement": "menstrual cycle", "setting": "[3]; human, in vivo", "value": "returned to normal"},
      {"measurement": "menstrual cycles", "setting": "[3]; human, in vivo", "value": "shortened from every 4 weeks to every 2 weeks"},
      {"measurement": "I&O catheterization required", "setting": "[3]; patient three (before: QID catheterization), started at 0.05 g/kg/d", "value": "1-2 times a week"},
      {"measurement": "functional capacity", "setting": "[3]; patient three, after 6 weeks of triacetyluridine", "value": "able to walk a full mile"},
      {"measurement": "pain of biliary dyssynergia", "setting": "[3]; [7]", "value": "gone"},
      {"measurement": "painful paresthesias", "setting": "[3]; [7]", "value": "gone, although some numbness persists"},
      {"measurement": "seizures and migraine since starting treatment", "setting": "[3]; [7]", "value": "has not had a seizure or migraine"},
      {"measurement": "sensorium", "setting": "[3]; [7]", "value": "Her sensorium has cleared"},
      {"measurement": "tachy-brady syndrome", "setting": "[3]; [7]", "value": "persists"},
      {"measurement": "nocturnal seizure activity", "setting": "[4]; after increase to 0.24 g/kg/d with 0.5 g calcium pyruvate TID added, transient escalation, then after 3 days", "value": "decreased to zero"},
      {"measurement": "seizures and involuntary lip movements", "setting": "[4]; first three days, 0.05 g/kg/day", "value": "stopped completely"},
      {"measurement": "functional outcome", "setting": "[4]; for several weeks", "value": "able to return to school and play little league baseball again"},
      {"measurement": "aminoaciduria", "setting": "[5]; patient two", "value": "improved"},
      {"measurement": "need for supplemental bicarbonate", "setting": "[5]; patient two (before: 25 mEg/kg/day)", "value": "did not require any further supplemental bicarbonate"},
      {"measurement": "time to complete resolution of renal tubular acidosis", "setting": "[5]; patient two, emergency treatment with triacetyluridine", "value": "≤ 12", "unit": "h"},
      {"measurement": "clinical outcome", "setting": "[5]; patient two, in coma before treatment", "value": "never awoke from their coma, and died after a 4 week terminal illness"},
      {"measurement": "time until plasma amino acids returned to normal ranges", "setting": "[5]; patient two, while receiving continuous parenteral nutrition", "value": "≤ 2", "unit": "h"},
      {"measurement": "time to complete correction of RTA", "setting": "[6]; Patient #1 (Leigh syndrome, complex I deficiency), triacetyluridine 2 g/m^2 PO TID", "value": "≤ 24", "unit": "h"},
      {"measurement": "serum bicarbonate maintained without any further oral bicarbonate", "setting": "[6]; [8]", "value": "more than 20 mEq/l"},
      {"measurement": "time to complete resolution of hydroxyprolinuria", "setting": "[6]; [8]", "value": "≤ 2", "unit": "weeks"},
      {"measurement": "urinary bicarbonate losses", "setting": "[6]; Patient #2 (initially 99 mEq/l), after 36 hours on treatment, 2 g/m^2 PO TID", "value": "< 5", "unit": "mEq/l"},
      {"measurement": "share of pre-enrollment dose of bicarbonate needed to maintain normal serum bicarbonate", "setting": "[6]; Patient #2, after 3 weeks of treatment, 2 g/m^2 PO TID", "value": 25, "unit": "%"},
      {"measurement": "urinary bicarbonate losses", "setting": "[6]; Patient #3 (59 mEq/l prior to therapy), after 36 hours of treatment, 2 g/m^2 PO TID", "value": "< 5", "unit": "mEq/l"},
      {"measurement": "share of previous dose of bicarbonate required", "setting": "[6]; Patient #3, after 3 weeks of treatment, 2 g/m^2 PO TID", "value": 10, "unit": "%"},
      {"measurement": "reduction in oral bicarbonate requirement", "setting": "[6]; Patient #4, following 1 week of treatment, 2 g/m^2 PO TID", "value": 35, "unit": "%"},
      {"measurement": "patients in whom renal tubular acidosis was corrected or dramatically improved", "setting": "[6]; patients with mitochondrial disease, 2 g/m^2 PO TID", "value": "4 out of 4"}
    ]}
  ]
}
